Among the data in BindingDB's records for doi:10.1016/j.bmcl.2011.03.071 (University of Canterbury, 2011) are Ki values, retold here.

For this assay, the target named is Phospho-2-dehydro-3-deoxyheptonate aldolase (Escherichia coli, UniProt C3TIE2). The experiment in a line: Competitive inhibition of recombinant Escherichia coli DAH7P synthase using PEP as substrate by Michaelis-Menten equation analysis using UV-visible spectrophotometry.
Sequence of Phospho-2-dehydro-3-deoxyheptonate aldolase (C3TIE2 1-350): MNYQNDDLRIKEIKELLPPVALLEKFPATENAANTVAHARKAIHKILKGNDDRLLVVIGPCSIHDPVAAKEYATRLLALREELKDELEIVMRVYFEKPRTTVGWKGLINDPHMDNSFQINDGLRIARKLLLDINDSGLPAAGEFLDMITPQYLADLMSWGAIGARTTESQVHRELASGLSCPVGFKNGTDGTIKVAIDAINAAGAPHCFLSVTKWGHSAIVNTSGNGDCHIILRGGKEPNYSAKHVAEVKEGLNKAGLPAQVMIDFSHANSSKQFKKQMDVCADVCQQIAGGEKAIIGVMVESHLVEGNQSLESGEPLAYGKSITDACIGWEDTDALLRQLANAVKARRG

In general, Ki refers to the equilibrium dissociation constant of an inhibitor or competing ligand from its target. For `O=C(O)C(=CCCCCOP(=O)(O)O)CP(=O)(O)O`, the inhibition constant (Ki) was 154 µM.
